Measurements taken from patent publication US7939091B2, “Biorational repellents obtained from terpenoids for use against arthropods” (Iowa State University Research Foundation, Inc., priority 1999, dated 2011).

Columns and labels:
[1] = tested on: house fly, Musca domestica; test: Choice-test arena bioassay (contact irritancy), house fly; assay type: in vivo; conditions: 300-second period
Description: (§1) A choice-test arena was used to assess irritancy of test solutions to two common household insect pests, the German cockroach (Blattella germanica) and the house fly (Musca domestica). Catnip essential oil obtained by steam distillation of catnip obtained from the same source as described in the above examples, and the two major components of its essential oil, Z,E-nepetalactone and E,Z-nepetalactone (isolated from the essential oil by preparative TLC), were evaluated for behavioral effects of contact irritancy to the German cockroach. The TLC was performed as described in McElvain, S. M. et al., J. Am. Chem. Soc., 1941, 63, 1558-1563. Catnip essential oil and its major constituent Z,E-nepetalactone were tested against the house fly. N,N-diethyl-m-toluamide (DEET) (Aldrich, St. Louis, Mo.) served as a positive control for the choice-test arena assay and as a point of comparison for measuring insect behavioral effects that result from current commercial insect repellents. Test solutions ranging from 10% to 0.1% (vol/vol) active ingredient (a.i.) were made up in acetone and then delivered on to a filter paper for solvent evaporation. […] Choice-test are for German cockroaches and house flies were constructed from plastic Petri dishes. One-half of a 12.5-cm dia. filter paper was treated with 1 ml test solution, and the other was treated with 1 ml of only solvent (control). Both halves of the filter paper were placed in the choice-test arena. Position of the treated filter paper was randomized using a random-number table.
(§2) Individual German cockroaches or house flies were placed in each choice-test arena through a centered hole in the lid of the Petri dish and evaluated for a 300-second period. The amount of time the insect spent on the treated and untreated filter papers were recorded and used to calculate a percentage repellency value: Percentage Repellency=((Time on Untreated-Time on Treated)/300)×100
(§3) Ten replicates of each treatment solution were tested for both German cockroaches and house flies. Details of this assay design and some results have previously been described.

[2] = tested on: German cockroach, Blattella germanica; test: Choice-test arena bioassay (contact irritancy), German cockroach, Example 6; assay type: in vivo; conditions: 300-second period
Description: as §1, §2, §3

[3] = tested on: German cockroach (Blattella germanica); test: Choice test arena repellency bioassay, adult male German cockroach, 300-second test; assay type: in vivo; conditions: for Mean Treated / Mean Untreated: 300-second test; for % repellency: (untreated − treated/300)*100
Description: Test Procedure. Repellency bioassays were conducted to assess the repellent properties of compositions containing catnip steam distillate (nepetalactone), Z,E-nepetalactone, E,Z-nepetalactone and DEET against cockroaches. Certified acetone and certified hexane were also tested in order to evaluate solvent effects. (DEET was dissolved in acetone, because DEET is insoluble in hexane. The tested compounds were dissolved in hexane because hexane was the solvent used to extract these compounds from the distillate). One Whatman 125-mm round filter paper was cut in half. One side was treated with one (1) ml of the test compound and the other side was treated with one (1) ml of solvent. The papers were allowed to dry in a fume hood for approximately two (2) minutes before being placed in a 150-mm Petri dish arena. The relative position of the treated side (i.e., to the right or left) of the dish was randomized using a random number table. […] The hole was stopped using a small piece of tape to prevent the insect from escaping. One adult male German cockroach (Blattella germanica) was selected from the colony and dropped into the pre-formed hole in the Petri dish lid. […] Ten (10) replications were performed for each test compound. Results. Using mean values and their related Standard Error of the Mean values (SEM), repellency of the selected samples was determined as shown in Table 2. Significance due to concentration was determined using ANOVA. […] Comparisons between test compounds were made using a two-tailed paired t-test (“paired t-test”) which indicates “differences” as is known in the art and shown in Table 4 (as compared with a “one-tailed” test, which indicates “greater or less than”). Testing Procedure. The same procedure described in Example 1 was used.

[4] = tested on: antennectomized male German cockroaches; test: Choice test arena behavioral assay of antennectomized male cockroaches; assay type: in vivo, Blattella germanica; conditions: Annectomized male cockroaches
Description: Testing Procedure. Male cockroaches were antennectomized by using a razor blade to remove the antennae as close to the head as possible. The cockroaches were allowed to recover from the procedure for 24 hours before being exposed to the test compounds in the bioassay described in Example 1. Results.

[5] = tested on: yellow fever mosquitoes, Aedes aegypti; test: Static-air repellency chamber, spatial and contact repellency, adult female yellow fever mosquitoes; assay type: in vivo; conditions: application rate 78.6 μg/cm^2
Description: Test Equipment. In this testing, a static air repellency chamber was used. The apparatus consisted of a 9×60-cm section of glass tubing with a 2-cm hole drilled at the midpoint along the length for central introduction of the insects. All of the testing was conducted in an environmental chamber at ambient temperatures.
Test Methods. The data for spatial repellency was collected at 15 minutes after the introduction of female yellow fever mosquitoes into a static air repellency chamber. Data for the contact repellency was collected after three hours. The concentrations used in the tests are 1% solution (1 ml of it on a 9-cm diameter filter paper). One (1) ml of a 1% (wt/vol) solution of repellent substance containing hexane as a carrier was pipetted onto a 9-cm diameter filter paper results in a concentration of 157 μg/cm^2. The solution contained the desired mass of compound to be tested added to the desired volume of hexane, e.g., for a 1% solution of catnip essential oil, […] was added to 100 ml of hexane.
One milliliter of the solution was applied to one half of a 9-cm diameter round filter paper with an area of 63.6 cm^2 and then allowed to dry before testing. […] Treated filter papers were placed inside the lids of 9-cm glass petri dishes, and placed over the ends of the glass tube. The position of the treated side, to the right or to the left, was selected by using a random-number table. Approximately fifteen unmated adult female mosquitoes were anaesthetized with CO2 and then introduced to the 9×60-cm glass cylinder through the centered 2-cm hole. Timing began 2 minutes after mosquito introduction, and mosquito distribution inside the static-air choice-test apparatus was observed over a 15-minute period for each treatment to determine spatial repellency. Basically the number of mosquitoes in the non-treated half were considered to be repelled and were counted. Percent repellency was considered to be: (Number of Individuals on Untreated Half−Number of Individuals on Treated Half)/15)×100. Contact repellency was defined in this assay as 100% avoidance of the treated filter paper-after three hours. The experimental design was a completely randomized design using six replications of each treatment.
All test methods were the same as described in Example 7, except spatial repellency over a longer period.
Test Methods. […] Also only three replications were used instead of six.

[6] = 0.1% test solution vs solvent-treated half, male
[7] = 0.5% test solution vs solvent-treated half, male
[8] = 1% test solution vs solvent-treated half, male
[9] = 5% test solution vs solvent-treated half, male
[10] = dose 16 μg/cm^2, male B. germanica, in 300 seconds
[11] = dose 80 μg/cm^2, male B. germanica, in 300 seconds

CC1=COC(=O)[C@H]2[C@@H]1CC[C@@H]2C [Z,E-Nepetalactone, cis-trans nepetalactone]
Percentage Repellency ([1]; application rate 80 μg/cm^2): 87.3%
Percentage Repellency ([1]; application rate 160 μg/cm^2): 69.3%
Percentage Repellency ([1]; application rate 800 μg/cm^2): 96.0%
Percentage Repellency ± SEM ([2]; application rate 16 μg/cm^2): 16.1 ± 7.4a %
Percentage Repellency ± SEM ([2]; application rate 80 μg/cm^2): 15.4 ± 6.9a %
Percentage Repellency ± SEM ([2]; application rate 160 μg/cm^2): 56.8 ± 7.8b %
Percentage Repellency ± SEM ([2]; application rate 800 μg/cm^2): 68.2 ± 5.7b %
Mean Treated [3, 6]: 127 s
Mean Untreated [3, 6]: 176 s
Mean Treated [3, 7]: 128 s
Mean Untreated [3, 7]: 174 s
Mean Treated [3, 8]: 65.4 s
Mean Untreated [3, 8]: 236 s
times less time on the treated side as compared with the untreated side ([3]; 5%): ~5 times
Mean Treated [3, 9]: 47.3 s
Mean Untreated [3, 9]: 252 s
Mean seconds on treated side ± SEM ([3]; Non-antennectomized male cockroaches, 160 μg/cm^2): 65.4 ± 11.8 s
% repellency ([3]; dose 16 μg/cm^2): 16%
Mean seconds on treated side ± SEM [3, 10]: 127 ± 11.2 a seconds
% repellency ([3]; dose 80 μg/cm^2): 15%
Mean seconds on treated side ± SEM [3, 11]: 128 ± 10.4 a seconds
% repellency ([3]; dose 160 μg/cm^2): 57%
Mean seconds on treated side ± SEM ([3]; dose 160 μg/cm^2, male B. germanica, in 300 seconds): 65.4 ± 11.8 b seconds
% repellency ([3]; dose 800 μg/cm^2): 68%
Mean seconds on treated side ± SEM ([3]; dose 800 μg/cm^2, male B. germanica, in 300 seconds): 47.3 ± 8.7 b seconds
Mean seconds on treated side ± SEM ([4]; 160 μg/cm^2): 121 ± 10.6 s
Mean seconds on untreated side ([4]; 160 μg/cm^2): 180 ± 10.5 s

CC1=COC(=O)C2[C@@H]1CC[C@@H]2C (stereo partly drawn) [E,Z-Nepetalactone, trans-cis nepetalactone]
Percentage Repellency ± SEM ([2]; application rate 16 μg/cm^2): 46.4 ± 11.0b %
Percentage Repellency ± SEM ([2]; application rate 80 μg/cm^2): 79.4 ± 3.5c %
Mean Treated [3, 6]: 76.7 s
Mean Untreated [3, 6]: 216 s
times less time on the treated side as compared with the untreated side ([3]; 0.5%): ~8 times
Mean Treated [3, 7]: 31.7 s
Mean Untreated [3, 7]: 270 s
Mean seconds on treated side ± SEM ([3]; Non-antennectomized male cockroaches, 80 μg/cm^2): 31.7 ± 5.2 s
% repellency ([3]; dose 16 μg/cm^2): 46%
Mean seconds on treated side ± SEM [3, 10]: 76.7 ± 13.7 b seconds
% repellency ([3]; dose 80 μg/cm^2): 79%
Mean seconds on treated side ± SEM [3, 11]: 31.7 ± 5.2 c seconds
Mean seconds on treated side ± SEM ([4]; 80 μg/cm^2): 153 ± 15.2 s
Mean seconds on untreated side ([4]; 80 μg/cm^2): 149 ± 15.3 s

CC1=CC[C@@]23[C@@H]([C@@H]12)[C@H](C(C)C)CC[C@H]3C [α-Cubebene, alpha-cubebene]
Mean Treated ([3]; amount used 0.1% solution): 118 s
Mean Untreated ([3]; amount used 0.1% solution): 182 s
% repellency ([3]; amount used 0.1% solution): 21%
Mean Treated ([3]; amount used 0.5% solution): 99.4 s
Mean Untreated ([3]; amount used 0.5% solution): 211 s
% repellency ([3]; amount used 0.5% solution): 36%

CC(C)=CCc1c2c(c3occ(-c4ccc(O)cc4)c(=O)c3c1O)C=CC(C)(C)O2 [Osajin, osajin]
Mean Treated ([3]; amount used 0.5% solution): 117 s
Mean Untreated ([3]; amount used 0.5% solution): 184 s
% repellency ([3]; amount used 0.5% solution): 22%
Mean Treated ([3]; amount used 1% solution): 103 s
Mean Untreated ([3]; amount used 1% solution): 197 s
% repellency ([3]; amount used 1% solution): 31%

c1ccc2ccccc2c1 [Naphthalene, reference compound]
Mean Treated ([3]; amount used 1% solution): 117 s
Mean Untreated ([3]; amount used 1% solution): 184 s
% repellency ([3]; amount used 1% solution): 22%

CC(C)=CCCC(C)CC=O (stereo not drawn) [Citronellal, citronellal, reference compound]
Average Percentage Repellency Over Time ([5]; 60 min): 10%
Average Percentage Repellency Over Time ([5]; 120 min): 19%
Average Percentage Repellency Over Time ([5]; 360 min): 1%
Average Percentage Repellency Over Time ([5]; Initial): 79%

CCCCCCOC(=O)CCCCC [Hexyl hexanoate]
Mean Treated ([3]; amount used 1% solution): 142 s
Mean Untreated ([3]; amount used 1% solution): 158 s
% repellency ([3]; amount used 1% solution): 5.2%

CC(C)=CCc1c2c(c3occ(-c4ccc(O)c(O)c4)c(=O)c3c1O)C=CC(C)(C)O2 [Pomiferin, pomiferin]
Mean Treated ([3]; amount used 1% solution): 138 s
Mean Untreated ([3]; amount used 1% solution): 163 s
% repellency ([3]; amount used 1% solution): 8.3%
